Assay results taken from US20100075360A1, “UV BASED CELL VIABILITY AS AN INDICATOR OF SUN PROTECTION FACTOR AND METHODS OF MEASUREMENT THEREOF” (priority 2008, published 2010).
Where two headings read alike, the source gives them in different places.

What was measured:
[1] = system: Swiss 3T3 fibroblast cells; assay: Percentage of UV protection in Swiss 3T3 fibroblast cells (NRU staining); format: cell-based, mouse; settings: UV B 5 minutes
Description: The unexposed region of the plate was covered by aluminum foil. […] The percentage of UV protection was calculated with respect to unexposed cells.

[2] = system: Swiss 3T3 fibroblast cells
Description: Swiss 3T3 Mouse fibroblast cells and HaCAT Human keratinocytes were obtained from ATCC and cultured in DMEM medium supplemented with 10% FBS. The confluent cultures are harvested by trypsinization and expanded during two more passages before they were used for the experiments. Medium and other culture components were renewed after 48-72 h. All cell cultures were maintained in a humidified atmosphere at 37° C. in 95% air and 5% CO2.
UV lamp of 14.7 W, 0.3 A, 55V with an intensity of 33.3 μW/cm^2 from Sankyo Denki Co., Ltd.
The neutral red (NR) uptake assay: The NR cytotoxicity assay procedure is a cell survival/viability chemosensitivity assay, based on the ability of viable cells to incorporate and bind neutral red, a supravital dye. NR is a weak cationic dye that readily penetrates cell membranes by non-ionic diffusion, accumulating intracellularly in lysosomes, where it binds with anionic sites in the lysosomal matrix. Alterations of the cell surface or the sensitive lysosomal membrane lead to lysosomal fragility and other changes that gradually become irreversible. Such changes brought about by UV exposure result in a decreased uptake and binding of NR. It is thus possible to distinguish between viable, damaged, or dead cells, which are the basis of this assay. The dye taken up by the cells is subsequently extracted and measured. The dye was dissolved in distilled water at a concentration of 0.5 mg/100 μl. 80 μl of this stock solution was dissolved in 15 ml of pre warmed DMEM medium. The developer solution consists of 25 ml of water, 24.5 ml of ethanol and 0.5 ml of glacial acetic acid. The NRU dye and the developer solutions are to be made fresh before use. After UV exposure and consequent incubation for 72 hrs, the culture medium is replaced with NRU dye and incubated for 3 hrs at 37° C., after which the dye is washed off thrice with PBS. The dye is dissolved in 100 μl of developer solution and incubated at RT for 20 min. The OD was determined at 492 nm using a microplate reader.
Swiss 3T3 fibroblasts were plated in a 96 well micropipette at a seeding density of 3000 cells per well. […] After exposure, the cells were incubated in a CO2 incubator for 48 hrs and developed by the NRU staining technique to analyze the cell viability. The SPF of 1.25% OMC was determined with respect to the untreated cells.

CCCCC(CC)COC(=O)C=Cc1ccc(OC)cc1 (stereo not shown) [OMC, Octyl methoxy cinnamate]
% UV protection ([1]; 0.15% OMC in culture medium, vs unexposed cells): 56%
% UV protection ([1]; 0.31% OMC in culture medium): 71%
% UV protection ([1]; 0.62% OMC in culture medium): 77%
% UV protection ([1]; 1.25% OMC in culture medium): 90%
minimal cytotoxic dose (MCDp) for protected cells ([2]; 1.25% OMC): 0.144 J/cm^2
% UV toxicity ([2]; 1.25% OMC, UV dosage 0.0072 J/cm^2): 0%
% UV toxicity ([2]; 1.25% OMC, UV dosage 0.0216 J/cm^2): 0%
% UV toxicity ([2]; 1.25% OMC, UV dosage 0.036 J/cm^2): 0%
% UV toxicity ([2]; 1.25% OMC, UV dosage 0.0504 J/cm^2): 0%
% UV toxicity ([2]; 1.25% OMC, UV dosage 0.072 J/cm^2): 0%
% UV toxicity ([2]; 1.25% OMC, UV dosage 0.216 J/cm^2): 39.62%
minimal cytotoxic dose (MCDp) for protected cells ([2]; 7% OMC): 0.54 J/cm^2
SPF (MCDp/MCDu) ([2]; 7% OMC, MCDu 0.0216 J/cm^2): 25
% UV toxicity ([2]; 7% OMC, UV dosage 0.0072 J/cm^2): 0%
% UV toxicity ([2]; 7% OMC, UV dosage 0.0216 J/cm^2): 0%
% UV toxicity ([2]; 7% OMC, UV dosage 0.036 J/cm^2): 0%
% UV toxicity ([2]; 7% OMC, UV dosage 0.0504 J/cm^2): 0%
% UV toxicity ([2]; 7% OMC, UV dosage 0.072 J/cm^2): 0%
% UV toxicity ([2]; 7% OMC, UV dosage 0.18 J/cm^2): 0%
% UV toxicity ([2]; 7% OMC, UV dosage 0.432 J/cm^2): 0%
% UV toxicity ([2]; 7% OMC, UV dosage 0.54 J/cm^2): 7%
% UV toxicity ([2]; 7% OMC, UV dosage 0.648 J/cm^2): 9%
